Where two headings read alike, the source gives them in different places.

Assay type in all cases: cell-based, human
Experiment [1] deals with HTT mRNA. Nature of the experiment: RT-qPCR splicing assay, HTT canonical (CJ) and alternative (AJ) junction mRNA. The following applies: Homo sapiens; for AC50: read-out: HTT AJ (AC50, increase in AJ mRNA). The method, boiled down:
(§1)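 A673 or K562 cells were treated 24 h at 37 °C with an 11-point 3-fold compound dilution series, top dose 10 uM final, DMSO ≤0.25%. Lysates went to one-step RT-qPCR for canonical (CJ) and alternative-exon (AJ) junctions; ΔCt vs GAPDH, GUSB or PPIA, normalized to DMSO, as 2^(-ΔΔCt).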

Experiment [2] has as its system MYB mRNA. The experiment is described as follows: RT-qPCR splicing assay, MYB canonical (CJ) and alternative (AJ) junction mRNA. As to conditions: Homo sapiens; for AC50: read-out: MYB AJ (AC50, increase in AJ mRNA). The method, boiled down:
as §1

Experiment [3] concerns Target C mRNA. Nature of the experiment: RT-qPCR splicing assay panel, Target C canonical junction (CJ) mRNA. As to conditions: Homo sapiens, canonical junction (CJ) mRNA, RT-qPCR panel, Table 4A; read-out: Target C, decrease in CJ mRNA levels, IC50. The gist of the method:
as §1

Experiment [4] concerns SMN2 mRNA. Nature of the experiment: RT-qPCR splicing assay panel, SMN2 canonical junction (CJ) mRNA. The following applies: Homo sapiens, canonical junction (CJ) mRNA, RT-qPCR panel, Table 4A; read-out: SMN2, decrease in CJ mRNA levels, IC50. The gist of the method:
as §1

The mark [5] stands for this setting: 24 h, Table 3A, A673 or K562 cells, 24 h treatment.
The mark [6] stands for this setting: 24 h, Table 3A, A673 or K562 cells, 24 h treatment, read-out: HTT CJ (IC50, decrease in CJ mRNA).
[7] abbreviates: canonical junction (CJ) mRNA, RT-qPCR panel, Table 4A, read-out: HTT, decrease in CJ mRNA levels, IC50.
[8] abbreviates: 24 h, Table 3A, A673 or K562 cells, 24 h treatment, read-out: MYB CJ (IC50, decrease in CJ mRNA).
Setting [9] is: canonical junction (CJ) mRNA, RT-qPCR panel, Table 4A, read-out: MYB, decrease in CJ mRNA levels, IC50.

With `COc1cc(-c2ccc(-c3ccc(N4CCC(CNC5CCC5)C4)nn3)c(O)c2)cnn1` (centres unmarked) [Compound 348, 2-(6-{3-[(cyclobutylamino)methyl]pyrrolidin-1-yl}pyridazin-3-yl)-5-(6-methoxypyridazin-4-yl)phenol], the AC50 lay within 100 to 1000 nM in experiment [1] (setting [5]) and 1000 to 10000 nM in experiment [2] (setting [5]). For the same compound, the concentration for half-maximal inhibition (IC50) in experiment [1] (setting [6]) was less than 100 nM; in experiment [1] (setting [7]), less than 100 nM; in experiment [2] (setting [8]), 100 to 1000 nM; in experiment [2] (setting [9]), 100 to 1000 nM; in experiment [3], 100 to 1000 nM; in experiment [4], less than 100 nM.

`COc1cc(-c2ccc(-c3nnc(N4CC[C@H](NC5CCC5)C4)cc3C)c(O)c2)cnn1` [Compound 450, (S)-2-(6-(3-(cyclobutylamino)pyrrolidin-1-yl)-4-methylpyridazin-3-yl)-5-(6-methoxypyridazin-4-yl)phenol]: the AC50 in experiment [1] (setting [5]) and in experiment [2] (setting [5]) was 1000 to 10000 nM each time. The IC50 in experiment [1] (setting [6]), in experiment [1] (setting [7]), in experiment [2] (setting [8]), in experiment [2] (setting [9]), in experiment [3] and in experiment [4] was 1000 to 10000 nM in each case.

As for `COc1cc(-c2ccc(-c3ccc(N4CCC(N[C@H]5C[C@H](O)C5)C4)nn3)c(O)c2)cnn1` (some centres unmarked) [Compound 447], the AC50 is less than 100 nM in experiment [1] (setting [5]) and 100 to 1000 nM in experiment [2] (setting [5]). Also, the IC50 was less than 100 nM in experiment [1] (setting [6]); less than 100 nM in experiment [1] (setting [7]); 100 to 1000 nM in experiment [2] (setting [8]); 100 to 1000 nM in experiment [2] (setting [9]); 100 to 1000 nM in experiment [3]; less than 100 nM in experiment [4].

For the compound `COc1cc(-c2cc(O)c(-c3ccc(N4CCC(NCC5CC5)C4)nn3)cc2F)ncn1` (centres unmarked) [Compound 417], the AC50 in experiment [1] (setting [5]) and in experiment [2] (setting [5]) was 1000 to 10000 nM in each case. The 50% inhibitory concentration (IC50) in experiment [1] (setting [6]) was 1000 to 10000 nM; in experiment [1] (setting [7]), 1000 to 10000 nM; in experiment [2] (setting [8]), more than 10000 nM; in experiment [2] (setting [9]), more than 10000 nM; in experiment [3], more than 10000 nM; in experiment [4], 1000 to 10000 nM.

Turning to `COc1cc(-c2cc(O)c(-c3ccc(N4CC[C@H](NC5(C)CCC5)C4)nn3)cc2F)cnn1` [Compound 299], the values for the AC50 in experiment [1] (setting [5]) and in experiment [2] (setting [5]) were less than 100 nM and 100 to 1000 nM, respectively. Besides, the IC50 is less than 100 nM in experiment [1] (setting [6]); less than 100 nM in experiment [1] (setting [7]); 100 to 1000 nM in experiment [2] (setting [8]); 100 to 1000 nM in experiment [2] (setting [9]); 100 to 1000 nM in experiment [3]; less than 100 nM in experiment [4].

`COc1cc(-c2cc(O)c(-c3ccc(N4CC[C@@H](N[C@H]5C[C@@H](F)C5)C4)nn3)cc2F)cnn1` (racemic) [Compound 161, 4-fluoro-5-(6-methoxypyridazin-4-yl)-2-[6-(3-{[(1s,3s)-3-fluorocyclobutyl]amino}pyrrolidin-1-yl)pyridazin-3-yl]phenol]: the AC50 in experiment [1] (setting [5]) and in experiment [2] (setting [5]) was 100 to 1000 nM each time. For the same compound, the IC50 in experiment [1] (setting [6]) is 100 to 1000 nM; in experiment [1] (setting [7]) it was 100 to 1000 nM; in experiment [2] (setting [8]), 100 to 1000 nM; in experiment [2] (setting [9]), 100 to 1000 nM; in experiment [3], 100 to 1000 nM; in experiment [4], less than 100 nM.

In the case of `COc1cc(-c2ccc(-c3ccc(N4CC[C@@H](NCC5CC5)C4)nn3)c(O)c2)ncn1` [Compound 382, 2-{6-[(3R)-3-[(cyclopropylmethyl)amino]pyrrolidin-1-yl]pyridazin-3-yl}-5-(6-methoxypyrimidin-4-yl)phenol], the AC50 in experiment [1] (setting [5]) and in experiment [2] (setting [5]) was 100 to 1000 nM throughout. For the same compound, the IC50 in experiment [1] (setting [6]) was less than 100 nM; in experiment [1] (setting [7]), less than 100 nM; in experiment [2] (setting [8]), 100 to 1000 nM; in experiment [2] (setting [9]), 100 to 1000 nM; in experiment [3] it was 100 to 1000 nM; in experiment [4], less than 100 nM.

The values above are taken from US20250333397A1 (REMIX THERAPEUTICS INC., priority 2021, published 2025).
